For 3 molecules, IC50 results are on record in ChEMBL document CHEMBL1147563, “Solid-phase synthesis and SAR of 4-carboxy-2-azetidinone mechanism-based tryptase inhibitors” (Bioorg Med Chem Lett, 2004).

pIC50: −log10 of the molar value.

One may read the pIC50 as −log10 of the IC50, conventionally taken in molar units. Higher therefore signals a low IC50. Broadly, the IC50 is the point on the concentration scale where inhibition reaches its midpoint. A high value points to a need for much substance.

One assay addresses Coagulation factor X (Homo sapiens, UniProt P00742). In words: Inhibitory activity against Coagulation factor X.
A further assay deals with Plasminogen (Rattus norvegicus, UniProt Q01177). As to the kind of experiment: Inhibitory activity against plasmin.
Plasminogen, sequence (Q01177 97-581 limits assumed): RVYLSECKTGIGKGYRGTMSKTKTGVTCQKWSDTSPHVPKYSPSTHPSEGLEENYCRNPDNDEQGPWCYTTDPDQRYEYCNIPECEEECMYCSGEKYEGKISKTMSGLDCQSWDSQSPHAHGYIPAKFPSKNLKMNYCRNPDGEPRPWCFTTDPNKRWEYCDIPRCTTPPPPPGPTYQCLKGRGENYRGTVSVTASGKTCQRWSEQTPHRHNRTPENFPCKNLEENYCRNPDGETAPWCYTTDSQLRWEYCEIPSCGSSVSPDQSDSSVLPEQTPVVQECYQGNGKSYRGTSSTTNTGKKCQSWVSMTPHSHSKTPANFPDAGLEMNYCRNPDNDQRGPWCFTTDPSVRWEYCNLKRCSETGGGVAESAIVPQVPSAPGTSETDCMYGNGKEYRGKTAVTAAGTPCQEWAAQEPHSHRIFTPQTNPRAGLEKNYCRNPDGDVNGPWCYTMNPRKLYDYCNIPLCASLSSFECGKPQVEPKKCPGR
Plasminogen, sequence (Q01177 582-812 limits assumed): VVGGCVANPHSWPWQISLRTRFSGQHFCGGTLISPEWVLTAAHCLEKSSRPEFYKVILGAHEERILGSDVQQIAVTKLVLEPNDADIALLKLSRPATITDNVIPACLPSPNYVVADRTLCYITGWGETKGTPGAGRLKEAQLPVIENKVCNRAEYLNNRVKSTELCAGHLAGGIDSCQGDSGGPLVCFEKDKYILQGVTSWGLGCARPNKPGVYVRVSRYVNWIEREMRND
A further assay has as its target Prothrombin (Homo sapiens, UniProt P00734). As to the kind of experiment: Inhibitory activity against thrombin.
Assay [1] deals with Tissue-type plasminogen activator (Homo sapiens, UniProt P00750). As to the kind of experiment: Inhibitory activity against tissue type plasminogen activator.
Tissue-type plasminogen activator, sequence (P00750 whole entry): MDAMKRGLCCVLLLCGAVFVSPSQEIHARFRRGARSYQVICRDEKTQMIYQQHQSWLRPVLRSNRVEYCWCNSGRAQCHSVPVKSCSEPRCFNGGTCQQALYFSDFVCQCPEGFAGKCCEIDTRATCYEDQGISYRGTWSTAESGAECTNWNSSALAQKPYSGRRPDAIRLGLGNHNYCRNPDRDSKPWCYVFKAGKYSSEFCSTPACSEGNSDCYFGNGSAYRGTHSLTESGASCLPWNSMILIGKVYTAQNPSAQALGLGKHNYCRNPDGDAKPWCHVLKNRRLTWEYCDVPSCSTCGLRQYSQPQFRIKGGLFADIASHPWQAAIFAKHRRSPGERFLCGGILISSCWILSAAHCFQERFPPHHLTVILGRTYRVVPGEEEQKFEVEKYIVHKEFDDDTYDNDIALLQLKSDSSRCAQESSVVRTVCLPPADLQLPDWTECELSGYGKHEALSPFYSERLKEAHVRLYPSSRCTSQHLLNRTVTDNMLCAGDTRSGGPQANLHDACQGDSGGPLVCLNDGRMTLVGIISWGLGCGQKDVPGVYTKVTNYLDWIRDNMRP
In another assay the target is Tryptase (Homo sapiens, UniProt Q9BZJ3+Q15661+Q9NRR2). In words: Inhibitory activity against human tryptase.
Assay [2] deals with T1, Serine protease 1 (Bos taurus, UniProt P00760).
T1 sequence (P00760 whole entry): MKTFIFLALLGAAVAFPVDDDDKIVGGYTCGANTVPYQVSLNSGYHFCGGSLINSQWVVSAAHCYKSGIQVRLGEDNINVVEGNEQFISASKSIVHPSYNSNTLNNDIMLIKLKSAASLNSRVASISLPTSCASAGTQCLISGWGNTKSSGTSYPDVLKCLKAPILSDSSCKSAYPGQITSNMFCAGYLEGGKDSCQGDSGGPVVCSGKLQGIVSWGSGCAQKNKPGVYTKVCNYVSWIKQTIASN
In words: Inhibitory activity against bovine trypsin.

Assay [3] addresses Serine protease 1 (Homo sapiens, UniProt P07477). In words: Inhibitory activity against trypsin.
Assay [4] addresses Urokinase-type plasminogen activator (Homo sapiens, UniProt P00749). As to the kind of experiment: Inhibitory activity against Urokinase-type plasminogen activator.

Serine protease 1 (Homo sapiens, UniProt P07477), sequence (P07477 whole entry): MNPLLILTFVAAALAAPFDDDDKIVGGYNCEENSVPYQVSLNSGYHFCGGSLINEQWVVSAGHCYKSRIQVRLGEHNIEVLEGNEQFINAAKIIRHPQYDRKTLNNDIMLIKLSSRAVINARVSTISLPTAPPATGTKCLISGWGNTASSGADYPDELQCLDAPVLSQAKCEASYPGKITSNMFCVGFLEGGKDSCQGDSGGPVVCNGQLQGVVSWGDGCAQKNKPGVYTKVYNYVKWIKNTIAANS
Coagulation factor X, sequence (P00742 41-179 limits assumed): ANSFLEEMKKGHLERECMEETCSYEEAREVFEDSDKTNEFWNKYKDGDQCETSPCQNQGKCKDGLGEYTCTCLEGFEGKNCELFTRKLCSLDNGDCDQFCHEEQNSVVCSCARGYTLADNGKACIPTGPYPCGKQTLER
Coagulation factor X, sequence (P00742 235-488 limits assumed): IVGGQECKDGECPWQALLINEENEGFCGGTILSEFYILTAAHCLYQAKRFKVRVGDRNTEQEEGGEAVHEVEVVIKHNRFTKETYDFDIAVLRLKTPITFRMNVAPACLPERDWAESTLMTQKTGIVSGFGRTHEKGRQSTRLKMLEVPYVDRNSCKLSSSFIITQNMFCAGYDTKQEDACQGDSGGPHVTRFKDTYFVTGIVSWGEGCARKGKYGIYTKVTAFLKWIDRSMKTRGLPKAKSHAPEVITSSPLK

Consider `CC(C)(C)NC(=O)N1CCN(C(=O)N2C(=O)[C@H](CC3CCNCC3)[C@H]2C(=O)O)CC1`, for which the pIC50 against Coagulation factor X was below 5.96; against Plasminogen, 6.60; against Prothrombin, below 5.96; in assay [1] it was below 5.96; on Serine protease 1 [2], 5.72; against Serine protease 1 [3], 7.21. In addition, the pIC50 in assay [4] was 7.47. The IC50 at Tryptase was determined as 30 nM.

With `O=C(O)C1[C@@H](CC2CCNCC2)C(=O)N1C(=O)N1CCN(C(=O)Cc2ccc(OCc3ccccc3)cc2)CC1` (single isomer, unassigned), the pIC50 at Plasminogen was 6.42; in assay [1], below 4.48; against Serine protease 1 [2], 6.36; at Serine protease 1 [3], 6.36; in assay [4], 5.92. In addition, the half-maximal inhibitory concentration (IC50) against Tryptase was found to be 1 nM.

Consider `O=C(O)C1[C@@H](CC2CCNCC2)C(=O)N1C(=O)N1CCN(C(=O)CCCCCc2ccccc2)CC1` (single isomer, unassigned), for which the pIC50 is 6.77 against Plasminogen; below 4.48 in assay [1]; 6.51 against Serine protease 1 [2]; 6.51 at Serine protease 1 [3]; 6.01 in assay [4].
